Assay results published in article PMC10247784, “Physiological activation of human and mouse bitter taste receptors by bile acids” (Communications Biology, 2023).
Several values for one entry are separate records, joined by “and”; a condition that tells them apart may be missing. Equal values may be shown once.

Molecular target: T1, human TAS2R14 (Homo sapiens, UniProt Q9NYV8)
T1 construct: expressed in transfected cells; host or cells: HEK293T-Gα16gust44
T1 sequence (Q9NYV8 1-317): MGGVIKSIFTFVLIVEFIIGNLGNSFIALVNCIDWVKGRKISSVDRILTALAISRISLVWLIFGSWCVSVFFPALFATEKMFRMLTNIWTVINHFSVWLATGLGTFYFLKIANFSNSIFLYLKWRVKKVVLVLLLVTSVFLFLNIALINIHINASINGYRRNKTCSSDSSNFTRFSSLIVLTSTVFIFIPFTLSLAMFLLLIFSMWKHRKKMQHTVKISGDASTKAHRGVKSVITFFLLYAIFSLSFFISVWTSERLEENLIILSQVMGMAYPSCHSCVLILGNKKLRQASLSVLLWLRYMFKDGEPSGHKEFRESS
Assay: Calcium imaging assay (FLIPR), HEK293T-Gα16gust44 cells transfected with human TAS2R14
Assay type: cell-based
Conditions: for RLU: TAS2R14 trace
Procedure: This set of bile acids was chosen because of their commercial availability in high purities, their diversity within the class of bile acids and their previous detection and quantitation in human blood. Stock solutions were prepared in DMSO.
As basal growth medium for the HEK293T-Gα16gust44 cell line[17],[59] served Dulbecco’s modified eagle medium (DMEM) (Thermo Fisher Scientific, Darmstadt, Germany) supplemented with 10 % fetal bovine serum (Sigma-Aldrich, Steinheim, Germany), 2 mM L-glutamine (Sigma-Aldrich, Steinheim, Germany), 100 units/ml penicillin (Sigma Aldrich, Steinheim, Germany) and 100 µg/ml streptomycin (Sigma Aldrich, Steinheim, Germany). Growth conditions were 37 °C, 5 % CO2 and saturated air-humidity[60].
HEK293T-Gα16gust44 cells were seeded on poly-D-lysine (10 µg/ml) coated 96-well plates to reach a confluence of 40-60 % the next day. For transient transfection 150 ng of plasmid DNA containing the receptor of interest and 0.3 µl lipofectamine 2000 (Thermo Fisher Scientific, Darmstadt, Germany) per well were used and transfection took place according to the manual of lipofectamine 2000. […] The empty vector DNA (mock) was transfected as negative control[14],[41].
Cells were loaded using the calcium-sensitive fluorescent dye Fluo-4-AM (Abcam, Cambridge, Great Britain) in the presence of 2.5 mM probenecid (Sigma-Aldrich, Steinheim, Germany) the day after transfection[13],[41]. 1 h after loading, cells were washed with C1 buffer using a BioTek Cell Washer, incubated in the dark for half an hour and washed again. For automated agonist application and measurement of fluorescence changes, a FLIPR^TETRA device (Molecular Devices, San José, United States) was used. Viability of cells was tested by application of 100 nM Somatostatin 14 (Bachem, Bubendorf, Switzerland)[42].
Measured data were negative control corrected by subtracting the signal of the mock-transfected cells and exported to Microsoft Excel using the FLIPR software ScreenWorks 4.2. In Microsoft Excel software, standardization of maximum fluorescence intensities to the basal fluorescence and normalization to the buffer-only control was done to calculate the relative fluorescence changes (ΔF/F).
Initial screening experiments performed in duplicate wells were confirmed by at least one replication and representative traces were selected for display. All dose-response relationships were determined by three independent experiments (biological replicates) performed in duplicates (technical replicates). Threshold concentrations, defined as lowest substance concentrations leading to statistically significant elevated fluorescence changes in receptor-transfected cells compared with empty vector-transfected cells, were determined using SigmaPlot with Student’s t-test to evaluate statistical significance (p < 0.01).

C[C@H](CCC(=O)O)[C@H]1CC[C@H]2[C@@H]3[C@H](O)C[C@@H]4C[C@H](O)CC[C@]4(C)[C@H]3CC[C@]12C [Chenodeoxycholic Acid, chenodeoxycholic acid]
Efficacy = maximal amplitude (ΔF/F) (TAS2R14, bile acids, mean): 0.05441 | Efficacy (maximal amplitude ΔF/F), individual data points (TAS2R14, bile acids, single replicates, listed as CDCA): 0.0148 and 0.07816 and 0.07028 | Δ F/F (TAS2R14, conc. 0,01 mM): 0.006116 | Δ F/F (TAS2R14, conc. 0,03 mM): 0.05441 | Δ F/F (TAS2R14, conc. 0,00003 mM): -0.01882 | Δ F/F (TAS2R14, conc. 0,0001 mM): -0.01861 | Δ F/F (TAS2R14, conc. 0,0003 mM): -0.02118 | Δ F/F (TAS2R14, conc. 0,001 mM): -0.02299 | Δ F/F (TAS2R14, conc. 0,003 mM): -0.02084 | RLU (Time (s) 0): 0 RLU | RLU (Time (s) 2 (Taurocholic Acid 2.016)): -49.1645 RLU | RLU (Time (s) 4 (Taurocholic Acid 4.016)): -25.5098 RLU | RLU (Time (s) 6 (Taurocholic Acid 6.016)): -14.6279 RLU | RLU (Time (s) 8 (Taurocholic Acid 8.016)): -24.697 RLU | RLU (Time (s) 12 (Taurocholic Acid 12.016)): -44.0879 RLU | RLU (Time (s) 14 (Taurocholic Acid 14.016)): -37.1122 RLU | RLU (Time (s) 16 (Taurocholic Acid 16.016)): -43.9695 RLU | RLU (Time (s) 18 (Taurocholic Acid 18.016)): -32.8497 RLU | RLU (Time (s) 18.797 (Chenodeoxycholic Acid 18.765)): 7.956 RLU | RLU (Time (s) 20.797 (Chenodeoxycholic Acid 20.781)): 109.495 RLU | RLU (Time (s) 22.797 (Chenodeoxycholic Acid 22.781)): 144.429 RLU | RLU (Time (s) 24.797 (Chenodeoxycholic Acid 24.781)): 188.481 RLU | RLU (Time (s) 26.797 (Chenodeoxycholic Acid 26.781)): 194.457 RLU | RLU (Time (s) 28.797 (Chenodeoxycholic Acid 28.781)): 226.874 RLU | RLU (Time (s) 30.797 (Chenodeoxycholic Acid 30.781)): 234.892 RLU | RLU (Time (s) 32.797 (Chenodeoxycholic Acid 32.781)): 237.826 RLU | RLU (Time (s) 34.797 (Chenodeoxycholic Acid 34.781)): 263.919 RLU | RLU (Time (s) 36.797 (Chenodeoxycholic Acid 36.781)): 289.916 RLU | RLU (Time (s) 38.797 (Chenodeoxycholic Acid 38.781)): 280.38 RLU | RLU (Time (s) 40.797 (Chenodeoxycholic Acid 40.781)): 364.7 RLU | RLU (Time (s) 42.797 (Chenodeoxycholic Acid 42.781)): 389.665 RLU | RLU (Time (s) 44.797 (Chenodeoxycholic Acid 44.781)): 409.588 RLU | RLU (Time (s) 46.797 (Chenodeoxycholic Acid 46.781)): 412.285 RLU | RLU (Time (s) 48.797 (Chenodeoxycholic Acid 48.781)): 462.382 RLU | RLU (Time (s) 50.797 (Chenodeoxycholic Acid 50.781)): 489.05 RLU | RLU (Time (s) 52.797 (Chenodeoxycholic Acid 52.781)): 480.824 RLU | RLU (Time (s) 54.797 (Chenodeoxycholic Acid 54.781)): 484 RLU | RLU (Time (s) 56.797 (Chenodeoxycholic Acid 56.781)): 514.521 RLU | RLU (Time (s) 58.797 (Chenodeoxycholic Acid 58.781)): 561.552 RLU | RLU (Time (s) 60.797 (Chenodeoxycholic Acid 60.781)): 547.999 RLU | RLU (Time (s) 62.797 (Chenodeoxycholic Acid 62.781)): 553.072 RLU | RLU (Time (s) 64.797 (Chenodeoxycholic Acid 64.781)): 596.368 RLU | RLU (Time (s) 66.797 (Chenodeoxycholic Acid 66.781)): 582.133 RLU | RLU (Time (s) 68.797 (Chenodeoxycholic Acid 68.781)): 591.364 RLU | RLU (Time (s) 70.797 (Chenodeoxycholic Acid 70.781)): 612.747 RLU | RLU (Time (s) 72.797 (Chenodeoxycholic Acid 72.781)): 626.948 RLU | RLU (Time (s) 74.797 (Chenodeoxycholic Acid 74.781)): 600.862 RLU | RLU (Time (s) 76.797 (Chenodeoxycholic Acid 76.781)): 644.716 RLU | RLU (Time (s) 78.797 (Chenodeoxycholic Acid 78.781)): 648.451 RLU | RLU (Time (s) 80.797 (Chenodeoxycholic Acid 80.781)): 604.524 RLU | RLU (Time (s) 82.797 (Chenodeoxycholic Acid 82.781)): 653.18 RLU | RLU (Time (s) 84.797 (Chenodeoxycholic Acid 84.781)): 678.438 RLU | RLU (Time (s) 86.797 (Chenodeoxycholic Acid 86.781)): 660.126 RLU
